“Also recorded” adds a separate entry of the source.
Key:
[1] = target: T1, huDHOase (Homo sapiens, UniProt P27708); assay: rapid spectrophotometric DHOase enzyme assay (hydrolysis of DHO); assay type: biochemical; settings: for inhibition of huDHOase (in words): 200 μM for the compounds of Figure 2, AZT concentration not given; for decrease of the activity of huDHOase: 200 μM compound in the standard assay
T1 construct: huDHOase1456-1846-NdeI-N; made in house; host or cells: E. coli BL21(DE3)
T1 sequence (P27708 1456-1846): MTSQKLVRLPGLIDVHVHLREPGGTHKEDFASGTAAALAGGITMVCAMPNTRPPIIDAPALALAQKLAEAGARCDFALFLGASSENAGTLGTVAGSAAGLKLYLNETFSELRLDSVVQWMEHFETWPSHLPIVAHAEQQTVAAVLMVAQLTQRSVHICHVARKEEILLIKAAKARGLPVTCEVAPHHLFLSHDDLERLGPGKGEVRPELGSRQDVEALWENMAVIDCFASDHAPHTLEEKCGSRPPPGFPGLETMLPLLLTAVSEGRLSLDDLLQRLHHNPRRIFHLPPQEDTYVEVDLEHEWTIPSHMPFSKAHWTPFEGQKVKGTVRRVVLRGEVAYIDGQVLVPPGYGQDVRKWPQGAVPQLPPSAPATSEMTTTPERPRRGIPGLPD
Protocol: A rapid spectrophotometric assay was used to determine the activity of DHOase. Briefly, the hydrolysis of DHO was measured at 25 °C as the decrease in absorbance at 230 nm. The purified DHOase was added to a 2 mL solution containing 0.5 mM DHO and 100 mM Tris–HCl at pH 8.0 to start the reaction. […] The hydrolysis of DHO was monitored using a UV/Vis spectrophotometer (Hitachi U 3300; Hitachi High-Technologies, Tokyo, Japan). A unit of activity was defined as the amount of enzyme catalyzing the hydrolysis of 1 μmol DHO/min, and the specific activity was expressed in terms of units of activity per mg of enzyme. The kinetic parameters Km and Vmax were determined from a nonlinear plot by fitting the hydrolyzing rate from individual experiments to the Michaelis–Menten equation (Enzyme Kinetics module of Sigma-Plot; Systat Software, Chicago, IL, USA).

[2] = target: T2, ScDHOase (Saccharomyces cerevisiae, UniProt P20051); assay: fluorescence quenching binding assay; settings: for quenching of the intrinsic fluorescence of ScDHOase: 200 μM compound, 324 nm, excitation 280 nm
T2 construct: made in house; host or cells: E. coli BL21(DE3)
Protocol: Figure 7 The data used to calculate the Kd values of various DHOases. (A) The fluorescence emission spectra of ScDHOase with PLU of different concentrations (0–200 μM; 0, 10, 20, 50, 75, 100, 125, 150, 175, and 200 μM). The decrease in intrinsic fluorescence of protein was measured at 324 nm upon excitation at 280 nm with a spectrofluorometer. […] (B) The fluorescence emission spectra of huDHOase with PLU of different concentrations (0–200 μM). (C) The fluorescence emission spectra of StDHOase with PLU of different concentrations. (D) The fluorescence emission spectra of ScDHOase–R18A with PLU of different concentrations. (E) The fluorescence emission spectra of ScDHOase–T106A with PLU of different concentrations. […] (F) An aliquot amount of PLU was added to the enzyme solution to determine the Kd. The Kd was obtained by the following equation: ΔF = ΔFmax − Kd(ΔF/[PLU]). Data points are an average of 2–3 determinations within a 10% error.
The decrease in the intrinsic fluorescence of DHOase was measured with a spectrofluorometer (Hitachi F-2700; Hitachi High-Technologies, Japan). The Kd was obtained using the following equation: ΔF = ΔFmax − Kd(ΔF/[PLU]).
The Kd value of the purified DHOase was determined using the fluorescence quenching method as previously described for DHOase, DHPase, and DnaB helicase. Briefly, an aliquot of the compound was added into the solution containing DHOase (1 μM) and 50 mM HEPES at pH 7.0. The decrease in the intrinsic fluorescence of DHOase was measured at 324 nm upon excitation at 280 nm and 25 °C with a spectrofluorometer (Hitachi F-2700; Hitachi High-Technologies, Japan). The Kd was obtained using the following equation: ΔF = ΔFmax − Kd(ΔF/[PLU]).

[3] = system: Plasmodium falciparum; design: method as in PMID 2675756; settings: read-out: concentration giving 50% growth inhibition of parasites; cited from earlier work
[4] = target: T2, ScDHOase; settings: cited from earlier work
[5] = in vitro; assay type: cell-based, mouse; settings: mouse
Protocol: The 4T1 cells (1 × 10^4) were incubated with PLU in a 100 μL volume. After 24 h, the anticancer potentiality was estimated.

[6] = system: 4T1 cells; assay: wound-healing assay; assay type: cell-based, mouse; settings: 5-FU 5 μM
Protocol: The wound-healing assay was performed to study whether PLU can inhibit 4T1 cell migration. Briefly, 4T1 cells were seeded in 24-well plates, incubated in serum-reduced medium for 6 h, wounded in a line across the well with a 200 μL pipette tip, and washed twice with the serum-reduced medium. After different treatments, cells were incubated for 24 h to allow migration.

[7] = system: 4T1 cells; assay: chromatin condensation assay (Hoechst staining); assay type: cell-based, mouse; settings: 5-FU 5 μM
Protocol: The apoptosis in 4T1 cells was assayed with Hoechst 33342 staining. The 4T1 cells were seeded in 6-well plates at a density of 5 × 10^5 cells per well in a volume of […] of culture medium. Cells were allowed to adhere for 16 h. After different treatments, cells were incubated for an additional 24 h, washed with PBS, stained with the Hoechst dye (1 μg·mL^−1) in the dark at RT for 10 min, and imaged using an inverted fluorescence microscope (Axiovert 200 M; Zeiss Axioplam, Oberkochen, Germany) at excitation and emission wavelengths (λem) of 360 and 460 nm, respectively. The apoptotic index was calculated as follows: apoptotic index = apoptotic cell number/(apoptotic cell number + nonapoptotic cell number).

[8] = system: 4T1 cells; assay: clonogenic formation assay; assay type: cell-based, mouse; settings: 5-FU 5 μM
Protocol: A clonogenic formation assay was used to assess the 4T1 cell growth to study whether the PLU can inhibit 4T1 cell proliferation. Briefly, 4T1 cells were seeded at a density of 10^3 cells per well into 6-well plates and incubated overnight for attachment. After different treatments, plates were incubated for 5–7 days to allow clonogenic growth. After washing with PBS, colonies were fixed with methanol and stained with 0.5% crystal violet for 20 min, and the number of colonies was counted under a light microscope.

T2 sequence (P20051 whole entry): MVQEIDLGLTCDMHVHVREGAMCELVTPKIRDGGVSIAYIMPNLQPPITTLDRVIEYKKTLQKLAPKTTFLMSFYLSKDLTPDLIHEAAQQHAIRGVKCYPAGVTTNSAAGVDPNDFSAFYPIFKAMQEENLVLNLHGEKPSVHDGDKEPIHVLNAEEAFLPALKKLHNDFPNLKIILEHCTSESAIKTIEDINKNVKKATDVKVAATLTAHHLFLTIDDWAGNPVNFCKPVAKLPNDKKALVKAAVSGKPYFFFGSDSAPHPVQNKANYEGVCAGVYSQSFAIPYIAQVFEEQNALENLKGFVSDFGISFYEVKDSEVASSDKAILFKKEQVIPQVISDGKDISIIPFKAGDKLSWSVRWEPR

| SMILES | inhibition of huDHOase (in words) [1] | quenching of the intrinsic fluorescence of ScDHOase [2] [%] | also measured |
| --- | --- | --- | --- |
| Nc1n[nH]c(N)n1 [3,5-diamino-1,2,4-triazole] | None of these compounds decreased the activity of huDHOase | 3.9 | – |
| O=C(O)c1[nH]c(=O)[nH]c(=O)c1F [5-FOA, 5-fluoroorotate] | – | 78.2 | decrease of the activity of huDHOase [1]: 26%; IC50 [3]: 0.006 µM |
| O=C(O)CC1NC(=O)NC1=O (stereo not shown) [5-HAA, 5-hydantoinacetic acid] | did not inhibit huDHOase | 1.5 | – |
| O=C1CCC(C(=O)O)NC(=O)N1 (stereo not shown) [DDCA, 2,7-dioxo-1,3-diazepane-4-carboxylic acid] | did not inhibit huDHOase | 3.0 | – |
| CSc1nnn[nH]1 [5-methylthio-1H-tetrazole] | None of these compounds decreased the activity of huDHOase | 2.3 | – |
| Cc1cn([C@H]2C[C@H](N=[N+]=[N-])[C@@H](CO)O2)c(=O)[nH]c1=O [AZT] | did not inhibit the activity of huDHOase | – | – |
| Nc1c[nH]c(=O)[nH]c1=O [5-AU, 5-aminouracil] | did not inhibit the activity of huDHOase | – | λmax of ScDHOase emission (red shift) [4]: from 324 to 335.5 |
| Nc1nc[nH]n1 [3-amino-1,2,4-triazole] | None of these compounds decreased the activity of huDHOase | 2.8 | – |
| N=C1NC(=O)CC(C(=O)O)S1 (stereo not shown) [ITCA, 2-imino-4-oxo-1,3-thiazinane-6-carboxylic acid] | – | 15.6 | decrease of the activity of huDHOase [1]: 12% |
| CC(=O)NCCc1cnc[nH]1 [N-ω-acetylhistamine] | None of these compounds decreased the activity of huDHOase | 2.8 | – |
| O=C(O)c1cc(=O)[nH]c(=O)[nH]1 [orotic acid] | – | 65.9 | Kd [2]: 198.3 ± 1.2 µM |
| CC(=O)NO [Acetohydroxamate] | – | 2.5 | – |
| O=c1[nH]cc(F)c(=O)[nH]1 [5-FU, 5-fluorouracil] | did not inhibit the activity of huDHOase; also recorded: cannot inhibit DHOase | – | mortality at 24 h, 5 μM [5]: 27%; Migration rate [6]: 65%; Apoptotic rate [7]: 26%; Colony count [8]: 54%; λmax of ScDHOase emission (red shift) [4]: from 324 to 335.5 |
| O=C(O)CC(O)C(=O)O (stereo not shown) [malate] | – | 10.9 | decrease of the activity of huDHOase [1]: 6% |

Source: publication PMC8267945, “Plumbagin, a Natural Product with Potent Anticancer Activities, Binds to and Inhibits Dihydroorotase, a Key Enzyme in Pyrimidine Biosynthesis” (International Journal of Molecular Sciences, 2021)
